In patent US20250281460A1, “PEGYLATED BILIRUBIN FOR THE TREATMENT OF […], OBESITY, FATTY LIVER DISEASE, CARDIOVASCULAR DISEASES AND TYPE II DIABETES” (The University of Toledo, priority 2019, published 2025):
Entries after “also recorded” stand apart in the source; their conditions may differ.

Assays:
3T3-L1 cells = assay: Adipogenesis assay, lipid accumulation (Nile Red) in 3T3-L1 cells; type: cell-based, mouse; conditions: over 9-day adipocytic differentiation
Method: Whether bilirubin decreases adiposity by enhancing mitochondrial function was evaluated. It was previously shown that bilirubin reduces lipid accumulation in adipocytes. However, it remained to be determined if this occurs by activation of PPARα to reduce adiposity, selective actions on PPARγ, or is a dual PPAR agonist, which together may mediate its glucose- and lipid-lowering effects. First, to determine if bilirubin enhances genes for mitochondrial function, 3T3-L1 cells, a WAT-type murine pre-adipocyte cell line that differentiates to full adipocytes, were treated with increasing concentrations of biliverdin, which is more soluble and is rapidly produced to bilirubin, over the 9-day adipocytic differentiation protocol.

3T3-PPARα cells = assay: SeaHorse mitochondrial respiration in 3T3-PPARα cells; type: cell-based, mouse; conditions: 3T3-L1 cells overexpressing PPARα
Source text: (§1) To investigate the specific role of bilirubin on PPARα or PPARγ as well as mitochondrial function and gene regulation, 3T3-LI cells that overexpressed each receptor (3T3-PPARα or 3T3-PPARγ2) were generated via lentivirus (FIGS. 2A-2B). […] The 3T3-Vector cells had no responses to biliverdin in FIGS. 2A-2B.
(§2) Cellular respiration was quantified using the Seahorse Extracellular Flux Analyzer XF-96 (Agilent Technologies, Cedar Creek, TX). The Seahorse XF Cell Mito Stress Test Kit (Agilent Technologies, Cat #103015-100) was used for analysis of cellular respiration. BAT or 3T3-L1 cells were seeded on a XF96 cell culture microplate (Agilent 101085-004) at 20,000 cells per well. Cells were then differentiated as previously described for 9 days. […] The oxygen consumption rate (OCR) and extracellular acidification rate (ECAR) were used to quantify the cellular energy phenotype of the cells. After treatment, cells were washed twice with Seahorse Bioscience Assay Media (XF Base media with 25 mM Glucose, 2 mM […], and 1 mM Sodium Pyruvate) then incubated with the buffer for 1 hour in a non-CO2 incubator. The Seahorse Cartridge ports were loaded with […] of assay media with […] FCCP, 10 μM Oligomycin, 5 μM Rotenone/Antimycin A in different ports an hour before assay. […] The raw data and graphs were supplied as an Excel File or Graphpad Prizm file.

3T3-PPARγ2 cells = assay: SeaHorse mitochondrial respiration and gene activity in 3T3-PPARγ2 cells; type: cell-based, mouse; conditions: 3T3-L1 cells overexpressing PPARγ2
Source text: as §1, §2

3T3-Vector cells = assay: SeaHorse mitochondrial respiration in 3T3-Vector cells; type: cell-based, mouse; conditions: lentiviral empty vector control cells
Source text: as §1, §2

Adrb3 promoter = Adrb3 promoter luciferase reporter in Cos7 cells with or without PPARα; type: cell-based, murine
Method: To determine if biliverdin/bilirubin is increasing Adrb3 in a PPARa-dependent manner, the proximal (−2816 to +118) and enhancer (−4770 to −4430) regions of the murine promoter in the pGL4.10 construct were cloned. The constructs were transfected with or without PPARα in receptorless Cos7 cells. The proximal promoter had no response with or without PPARα expressed in Cos7 cells (FIGS. 3D-3E). […] Therefore, various areas within the Adrb3 promoter were analyzed using the information from the luciferase promoter data and with analysis of several suspected PPREs in the promoter region.
An expression vector for Flag-Tagged PPARα was constructed as previously described. The cells were transfected with RXR-SG5 and either WT-Flag PPARα or with a Flag-Tagged PPARα plasmid with one of the following mutations: M330G, A333G, or T283G, in order to determine if binding of bilirubin at previously predicted positions would alter activity. Cells were also transfected with RXR-SG5 to enhance PPAR activity and the PPAR minimal reporter promoter plasmid (3Tk-Luc), whose activity was measured by luciferase, and pRL-CMV Renilla reporter for normalization to transfection efficiency. Transient transfection was achieved using GeneFect (Alkali Scientific, Inc.) during a 24-hour span.

[1] = system: BAT PPARα CRISPR KO cells; assay: Seahorse analysis in BAT PPARα CRISPR KO cells; type: cell-based, mouse; conditions: both KO clones, 24 hours
Source text: To further delineate the actions of bilirubin on BAT, CRISPR technology was developed to knockout (KO) PPARα and establish two null clone lines. […]. The function of the ligands was lost in both clones for the BAT PPARα CRISPR KO cells.
CRISPR-Technology was employed in BAT as previously described to excise part of Exon 3 and Exon 4 of the PPARα gene to create a PPARα Knockout BAT cell line. Two sgRNAs with high efficacy and low off-target scores were identified on Exon 3 and 4 of the mouse PPARα gene using Benchling online software. The two Cas9 targets were separated by 9,465 bases. All of the off-targets to our PPARα sgRNA had 4 mismatches, of which at least 1-2 were within the seed region (up to 12 bases proximal to the protospacer adjacent motif (PAM) site) which reduces the likelihood of Cas9 off-target effects. The multiplex sgRNAs were generated using the PrecisionX Multiplex gRNA Cloning Kit according to manufacturer instructions. […] After 36 h of transfection, cells with the top 10% level of fluorescence were single-sorted into 96-well plates by fluorescent activated cell sorting. […]
Cellular respiration was quantified using the Seahorse Extracellular Flux Analyzer XF-96 (Agilent Technologies, Cedar Creek, TX). […] The oxygen consumption rate (OCR) and extracellular acidification rate (ECAR) were used to quantify the cellular energy phenotype of the cells. […]

BAT cells = assay: Lipid accumulation over differentiation of BAT cells; conditions: increasing doses over the differentiation of the BAT cells
Source text: Upon differentiation, cells were stained with Nile Red to visualize lipid content, and densitometry was used as a direct measure as previously described.

Structure (SMILES): C=CC1=C(C)/C(=C/C2=NC(=C\c3[nH]c(/C=C4\NC(=O)C(C)=C4C=C)c(C)c3CCC(=O)O)/C(CCC(=O)O)=C2C)NC1=O [biliverdin]
- lipid accumulation (3T3-L1 cells; 1 μM): did not reduce
- lipid accumulation (3T3-L1 cells; 10 μM): significantly reduced
- lipid accumulation (3T3-L1 cells; 50 μM): significantly reduced
- lipid accumulation (3T3-L1 cells; 50 μM, listed as Biliverdin): significantly reduced; also recorded: substantially decreased
- ATP production (3T3-PPARα cells): significantly higher
- basal respiration (3T3-PPARα cells): significantly higher
- maximum respiration (3T3-PPARα cells): significantly higher
- proton leak (3T3-PPARα cells): significantly higher
- gene related activity (3T3-PPARγ2 cells): did not have significant increase
- mitochondrial respiration (3T3-PPARγ2 cells): no significant changes
- responses (mitochondrial respiration) (3T3-Vector cells): no responses
- luciferase activity, enhancer region with mutated PPREs (Adrb3 promoter; mutations in each PPRE separately): no induction
- luciferase activity, enhancer (−4770 to −4430) region (Adrb3 promoter; with PPARα overexpression): significantly higher
- luciferase activity, proximal (−2816 to +118) promoter (Adrb3 promoter; with or without PPARα expressed in Cos7 cells): no response
- function of the ligands on mitochondrial function (OCR) [1]: lost
- lipid accumulation (BAT cells): no impact
